According to patent US8961958B2, “High concentration self-microemulsifying coenzyme Q10 preparations for nutritional use” (Bioavailability, Inc, priority 2004, dated 2015):

Key:
[1] = Solubility of CoQ10 in solvents; type: physicochemical
Description: The speed at which the CoQ10 dissolves into the solvent is primarily a function of the temperature of the solvent and its viscosity, but the base composition that is prepared at a temperature above […] will have the same properties as a base prepared at a temperature of 37° C. If CoQ10 crystals are added to solvents hot enough to melt CoQ10 (48° C. to about 52° C.) the molten CoQ10 mixes and dissolves almost immediately. On the other hand, under room temperature conditions, several hours of stirring may be required to obtain even a 5% CoQ10 concentration in a highly viscous solvent such as a triglyceride oil. By contrast, a low viscosity solvent, such as sweet orange oil can dissolve a 30% CoQ10 concentration under room temperature almost immediately. The fact that CoQ10 melts at about 48° C. to about 52° C. and then is soluble at high concentrations in a wide range of only modestly hydrophobic media, such as ethanol, is distracting to the design of high concentration CoQ10 solutions at room temperature or body temperature. Many different high concentration solutions of CoQ10 which form readily at the high temperatures of molten CoQ10 are not stable, or are meta-stable, at body temperature.
Primary considerations in the choice of an acceptable water-immiscible solvent are somewhat similar to those in choosing an acceptable surfactant. In addition to the basic requirements of bio-compatibility, low toxicity and good taste and odor, the solvent must have a melting point at or about the temperature of a human and most other mammals (about 37° C.), and be able to dissolve a substantial amount of CoQ10 below body temperature. […] Once such a solvent is identified, the saturation capacity of the solvent with CoQ10 at body temperature is then determined, and a reduction in the concentration of CoQ10 is made to ensure that mixture of the CoQ10 and solvent, along with the more hydrophilic surfactant, will not cause CoQ10 precipitation. […]

[2] = cited from earlier work

thermodynamically stable concentration of CoQ10 in sweet orange oil ([1]; sweet orange oil, body temperature): up to 55%
CoQ10 concentration dissolved in sweet orange oil ([1]; sweet orange oil, room temperature, almost immediately): 30%
CoQ10 dissolvable in triglyceride oils ([1]; triglyceride oils, body temperature): ≤ 5 % by weight
SMILES: COC1=C(OC)C(=O)C(C/C=C(\C)CC/C=C(\C)CC/C=C(\C)CC/C=C(\C)CC/C=C(\C)CC/C=C(\C)CC/C=C(\C)CC/C=C(\C)CC/C=C(\C)CCC=C(C)C)=C(C)C1=O [CoQ10, coenzyme Q10]
solubility of CoQ10 in water [2]: nearly insoluble in water
